# Measurements published in patent US8021848B2, “Rapid and sensitive detection of cells and viruses” (Straus Holdings Inc., priority 2001, dated 2011).
# Assays:
# [1] = tested on: E. coli MG1655 (sensitive strain); test: Rapid antimicrobial susceptibility testing (broth dilution, large area CCD imaging); assay type: cell-based; conditions: after 4 hours of growth; comparable by CCD imaging, liquid culture or colony counting
# Method: (§1) Cells of two strains, one resistant and one sensitive, were tested for their ability to grow in a period of several hours in the antibiotic. Growth was detected by large area imaging of individual cells stained with a fluorescent nucleic acid stain.
# (§2) Experimental procedure. […] Also at these times points both a visible turbidity growth check and a plate count were performed. The turbidity check was performed according to NCCLS broth dilution guidelines. A “+” was recorded for a turbid culture and a “−” for non-turbid culture. The 1 ml aliquots were then stained with Syber Green I as in Example 2. Aliquots (10 μl) of the stained cells were placed in separate wells (with optically clear bottoms) of a 96 well plate (Greiner America, Inc.; cat. num. 655896), which contained 90 μl of water (Type I quality). The plates were spun in a centrifuge (Beckman Allegra) for 10 min at 600 g and then imaged. Fluorescence was detected by imaging using a CCD imager (described in Step 6 of Detailed description section and shown in FIG. 3) with an FITC optical filter set (Chroma/excitation 470/40 nm, emission 522/40 nm). Image-Pro Plus software, version 4.1 (Media cybernetics) was used to capture and process images from the CCD Imager.
# [2] = tested on: E. coli MG1655/pLAFRI (resistant strain); conditions: after 4 hours of growth; comparable by CCD imaging, liquid culture or colony counting
# Method: as §1, §2
smiles,measurement,setting,value
CN(C)[C@@H]1C(O)=C(C(N)=O)C(=O)[C@@]2(O)C(O)=C3C(=O)c4c(O)cccc4[C@@](C)(O)[C@H]3C[C@@H]12 [tetracycline],antibiotic concentration that inhibited growth of the antibiotic sensitive strain,[1],0.25 µg/mL
same,antibiotic concentration in which dramatic growth of the resistant strain was evident,[2],64 µg/mL
